Values after ≈ are worked out from the molar mass of the structure shown. Where two headings read alike, the source gives them in different places. One block for each molecule: values may come before it.
Assays:
[1] = Solubility studies using micronized glibenclamide: unbuffered 2% sucrose and water; assay type: physicochemical; conditions: for GLB mg/ml (glibenclamide in solution): 2% sucrose in water; for solubility: aqueous buffer, thermodynamic from solid, water without bulking agent
Method: Micronized glibenclamide in 2% sucrose (as a proxy for glucose, fructose, mannose, galactose, mannitol, sorbitol, lactose, trehalose, and other sugars, including mono-saccharides, di-saccharides) in water was prepared, as recorded in the left-hand column of Table 4. In addition, micronized glibenclamide was prepared in water without a bulking agent (see Table 4, right column). These were unbuffered solutions, so that 1) pH was adjusted to the target value, then 2) glibenclamide was added (which lowered the pH) and then 3) pH was re-adjusted up to the target. This was done iteratively until the pH was stable.

[2] = Solubility studies using micronized glibenclamide: unbuffered saline; assay type: physicochemical; conditions: thermodynamic from solid
Text: This was done iteratively until pH was stable. “GLB” indicates glibenclamide.

[3] = Solubility of glibenclamide in buffered water solutions (Britton Robinson); assay type: physicochemical
Text: Buffered water solutions (Britton Robinson buffers) were used to determine the amounts of glibenclamide soluble in buffered solutions without added salt or added sugar.

[4] = all measured pH values from pH 4 to pH 9; Britton-Robinson buffer; cited from earlier work
[5] = 0.1 M, pH 10 phosphate-buffered aqueous solution (300 mOsm/L); cited from earlier work
[6] = cited from earlier work
[7] = Stated physicochemical properties (pKa, water and ethanol solubility); conditions: 109 mg/L vs. 4 mg/L

GLB mg/ml (glibenclamide in solution) ([1]; pH 7.45): 0.051 mg/mL
GLB mg/ml (glibenclamide in solution) ([1]; pH 7.50): 0.099 mg/mL
GLB mg/ml (glibenclamide in solution) ([1]; pH 8.24): 0.310 mg/mL
GLB mg/ml (glibenclamide in solution) ([1]; pH 8.66): 1.069 mg/mL
GLB mg/ml (glibenclamide in solution) ([1]; pH 9.16): 2.608 mg/mL
GLB mg/ml (glibenclamide in solution) ([1]; pH 9.53): 3.060 mg/mL
GLB mg/ml (glibenclamide in solution) ([1]; pH 9.74): 4.103 mg/mL
GLB mg/ml (glibenclamide in solution) ([1]; pH 11.23): 3.811 mg/mL
GLB mg/ml (glibenclamide in solution) ([1]; pH 11.30): 3.416 mg/mL
GLB mg/ml (glibenclamide in solution) ([1]; pH 11.99): 1.904 mg/mL
solubility ([1]; pH 7.36, read-out: GLB mg/ml (glibenclamide in solution)): 0.019 mg/mL (≈ 38.5 µM)
solubility ([1]; pH 7.55, read-out: GLB mg/ml (glibenclamide in solution)): 0.096 mg/mL (≈ 194 µM)
solubility ([1]; pH 8.65, read-out: GLB mg/ml (glibenclamide in solution)): 0.799 mg/mL (≈ 1620 µM)
solubility ([1]; pH 8.73, read-out: GLB mg/ml (glibenclamide in solution)): 0.087 mg/mL (≈ 176 µM)
solubility ([1]; pH 9.13, read-out: GLB mg/ml (glibenclamide in solution)): 0.205 mg/mL (≈ 415 µM)
solubility ([1]; pH 9.57, read-out: GLB mg/ml (glibenclamide in solution)): 3.97 mg/mL (≈ 8030 µM)
solubility ([1]; pH 10.28, read-out: GLB mg/ml (glibenclamide in solution)): 4.87 mg/mL (≈ 9860 µM)
solubility ([1]; pH 11.19, read-out: GLB mg/ml (glibenclamide in solution)): 4.67 mg/mL (≈ 9460 µM)
solubility ([1]; pH 11.44, read-out: GLB mg/ml (glibenclamide in solution)): 4.84 mg/mL (≈ 9800 µM)
solubility ([1]; pH 12.27, read-out: GLB mg/ml (glibenclamide in solution)): 2.51 mg/mL (≈ 5090 µM)
solubility ([2]; 0.9% saline in water, pH 8.07, saline or isotonic, Saline 0.9%, pH 8.070, read-out: GLB mg/ml (glibenclamide in solution)): 0.024 mg/mL (≈ 48.6 µM)
solubility ([2]; 0.9% saline in water, pH 8.44, saline or isotonic, Saline 0.9%, pH 8.440, read-out: GLB mg/ml (glibenclamide in solution)): 0.109 mg/mL (≈ 221 µM)
solubility ([2]; 0.9% saline in water, pH 9.18, saline or isotonic, Saline 0.9%, pH 9.180, read-out: GLB mg/ml (glibenclamide in solution)): 0.435 mg/mL (≈ 881 µM)
solubility ([2]; 0.9% saline in water, pH 9.92, saline or isotonic, Saline 0.9%, pH 9.920, read-out: GLB mg/ml (glibenclamide in solution)): 0.42 mg/mL (≈ 850 µM)
solubility ([2]; 0.9% saline in water, pH 10.48, saline or isotonic, Saline 0.9%, pH 10.480, read-out: GLB mg/ml (glibenclamide in solution)): 0.456 mg/mL (≈ 923 µM)
solubility ([2]; 0.9% saline in water, pH 11.06, saline or isotonic, Saline 0.9%, pH 11.060, read-out: GLB mg/ml (glibenclamide in solution)): 0.445 mg/mL (≈ 901 µM)
solubility ([2]; 0.9% saline in water, pH 11.61, saline or isotonic, Saline 0.9%, pH 11.610, read-out: GLB mg/ml (glibenclamide in solution)): 0.538 mg/mL (≈ 1090 µM)
solubility ([2]; 0.9% saline in water, pH 12.07, saline or isotonic, Saline 0.9%, pH 12.070, read-out: GLB mg/ml (glibenclamide in solution)): 0.476 mg/mL (≈ 964 µM)
solubility ([2]; 2% saline in water, pH 12.1, saline or isotonic, Saline 2%, pH 12.10, read-out: GLB mg/ml (glibenclamide in solution)): 0.216 mg/mL (≈ 437 µM)
solubility ([2]; 2% saline in water, saline or isotonic, Saline 2%, pH 7.24, read-out: GLB mg/ml (glibenclamide in solution)): 0.012 mg/mL (≈ 24.3 µM)
solubility ([2]; 2% saline in water, saline or isotonic, Saline 2%, pH 7.97, read-out: GLB mg/ml (glibenclamide in solution)): 0.028 mg/mL (≈ 56.7 µM)
solubility ([2]; 2% saline in water, saline or isotonic, Saline 2%, pH 8.34, read-out: GLB mg/ml (glibenclamide in solution)): 0.087 mg/mL (≈ 176 µM)
solubility ([2]; 2% saline in water, saline or isotonic, Saline 2%, pH 8.89, read-out: GLB mg/ml (glibenclamide in solution)): 0.214 mg/mL (≈ 433 µM)
solubility ([2]; 2% saline in water, saline or isotonic, Saline 2%, pH 8.94, read-out: GLB mg/ml (glibenclamide in solution)): 0.233 mg/mL (≈ 472 µM)
solubility ([2]; 2% saline in water, saline or isotonic, Saline 2%, pH 9.49, read-out: GLB mg/ml (glibenclamide in solution)): 0.205 mg/mL (≈ 415 µM)
solubility ([2]; 2% saline in water, saline or isotonic, Saline 2%, pH 10.31, read-out: GLB mg/ml (glibenclamide in solution)): 0.215 mg/mL (≈ 435 µM)
solubility ([2]; 2% saline in water, saline or isotonic, Saline 2%, pH 10.98, read-out: GLB mg/ml (glibenclamide in solution)): 0.192 mg/mL (≈ 389 µM)
solubility ([2]; 2% saline in water, saline or isotonic, Saline 2%, pH 11.49, read-out: GLB mg/ml (glibenclamide in solution)): 0.194 mg/mL (≈ 393 µM)
solubility ([3]; Britton Robinson buffer in water, aqueous buffer, pH 9.000, read-out: GLB mg/mL (glibenclamide in solution)): 0.14 mg/mL (≈ 283 µM)
solubility ([3]; Britton Robinson buffer in water, pH 9.7, aqueous buffer, pH 9.700, read-out: GLB mg/mL (glibenclamide in solution)): 0.85 mg/mL (≈ 1720 µM)
solubility ([3]; Britton Robinson buffer, aqueous buffer, pH 5.3, read-out: GLB mg/mL (glibenclamide in solution)): 0.01 mg/mL (≈ 20.2 µM)
solubility ([3]; Britton Robinson buffer, aqueous buffer, pH 8.000, read-out: GLB mg/mL (glibenclamide in solution)): 0.02 mg/mL (≈ 40.5 µM)
solubility ([3]; Britton Robinson buffer, aqueous buffer, pH 8.3, read-out: GLB mg/mL (glibenclamide in solution)): 0.02 mg/mL (≈ 40.5 µM)
solubility ([3]; Britton Robinson buffer, pH 6.2, aqueous buffer, pH 6.200, read-out: GLB mg/mL (glibenclamide in solution)): 0.01 mg/mL (≈ 20.2 µM)
solubility ([3]; Britton Robinson buffer, pH 7.1, aqueous buffer, pH 7.100, read-out: GLB mg/mL (glibenclamide in solution)): 0.01 mg/mL (≈ 20.2 µM)
solubility ([3]; Britton Robinson buffer, pH 10.1, aqueous buffer, pH 10.100, read-out: GLB mg/mL (glibenclamide in solution)): 2.35 mg/mL (≈ 4760 µM)
SMILES: COc1ccc(Cl)cc1C(=O)NCCc1ccc(S(=O)(=O)NC(=O)NC2CCCCC2)cc1 [Glibenclamide, 5-chloro-N-[2-[4-(cyclohexylcarbamoylsulfamoyl)phenyl]ethyl]-2-methoxy-benzamide]
solubility [4]: below 1 mg/mL
solubility [5]: 500 µg/mL (≈ 1010 µM)
ethanol solubility [6]: 5000 µg/mL

SMILES: CCOc1cc(CC(=O)N[C@@H](CC(C)C)c2ccccc2N2CCCCC2)ccc1C(=O)O [Repaglinide]
water solubility ([6]; pH 9): 600 µg/mL (≈ 1330 µM)

times more soluble in water than glibenclamide [7]: 24 times
SMILES: CCCCNC(=O)NS(=O)(=O)c1ccc(C)cc1 [Tolbutamide]
water solubility [6]: 109 µg/mL (≈ 403 µM)

— patent US8858997B2, “Formulations and methods for lyophilization and lyophilates provided thereby” (Remedy Pharmaceuticals, Inc., priority 2007, dated 2014)
